According to US5631261A, “Triazoloquinazolines, their preparation and use” (BASF Aktiengesellschaft, priority 1992, dated 1997):

Experiments:
[1] = biological target: T1, NMDA receptor (N-methyl-D-aspartate) (Rattus norvegicus, UniProt P35439); assay: Binding of 3H-5,7-dichlorokynurenic acid (displacement from rat cerebral membranes); conditions: buffer pH 7.4, on ice 30 minutes
T1 construct: isolated membrane material from rat cerebra; from tissue; host or cells: rat cerebrum, washed membranes
Protocol: (§1) The pharmacological activity of the compounds I according to the invention was investigated on isolated membrane material from rat cerebra. To do this, the membrane material was treated in the presence of the compounds according to the invention with the radiolabeled substances ^3 H-2-amino-3-hydroxy-5-methyl-4-isoxazolepropionic acid (^3 H-AMPA) and ^3 H-5,7-dichlorokynurenic acid, the latter binding to specific receptors (AMPA receptor and NMDA receptor (N-methyl-D-aspartate)respectively). The radioactivity of the treated membranes was subsequently measured by scintillation counting. The amounts of bound ^3 H-AMPA and ^3 H-5,7-dichlorokynurenic acid, or in each case the amounts of these radiolabeled substances displaced, were determined from the bound radioactivity. The dissociation constant KI (I=inhibitor) resulting from this, which is a measure of the displacing effect of the agent according to the invention, was found by iterative nonlinear regression analysis using the Statistical Analysis System (SAS) on an IBM computer, similar to the Ligand program of P. J. Munson or D. Rodbard (Analytical Biochem. 107, 220 (1980), Ligand: Versatile Computerized Approach for Characterization of Ligand Binding Systems).
2. Binding of ^3 H-5,7-dichlorokynurenic acid
To prepare the membrane material, freshly removed rat cerebra were homogenized together with about 10 times the volume of a buffer solution A' composed of 50 mM TRIS-HCl and 10 mM EDTA, pH 7.4. The suspension was centrifuged at 48,000 g for 20 minutes. After removal of the supernatant liquid, the membrane material present in the sediment was washed twice by suspension in buffer solution A' and subsequent centrifugation for 20 minutes each time and suspension. After resuspension of the membranes in buffer solution A' and freezing in liquid nitrogen, the suspension was thawed again at 37° C. and, after another wash step, incubated at 37° C. for 15 minutes. The protein material was subsequently washed by centrifugation and suspension four times and was stored at -70° C. until used.
For the binding assay, the protein material was thawed at 37° C. and washed twice by centrifugation at 48,000 g (20 minutes) followed by suspension in a buffer solution B' composed of 50 mM TRIS-HCl, pH 7.4. Subsequently 0.15 mg of membrane material, 0.3 μCi of ^3 H-5,7-dichlorokynurenic acid (16 Ci/mmol) and compound I were dissolved in 1 ml of buffer solution B' and incubated on ice for 30 minutes. The incubated solution was centrifuged at 150,000 g for 2 minutes. After removal of the supernatant liquid, the sediments were suspended twice in 1.5 ml of cold buffer solution B' each time. After the radioactivity of the ^3 H-5,7-dichlorokynurenic acid bound to the membranes in the sediment had been measured, the KI was found by subjecting the displacement plots to regression analysis.

AMPA receptor = assay: Binding of 3H-AMPA (displacement from rat cerebral membranes); conditions: buffer pH 7.1, on ice 60 minutes
Protocol: as §1
1. Binding of ^3 H-2-amino-3-hydroxy-5-methyl-4-isoxanolpropionic acid (^3 H-AMPA)
To prepare the membranes, freshly removed rat cerebra were homogenized together with about 15 times the volume of a buffer solution A composed of 30 mM α,α,α-tris(hydroxymethyl)methylamine hydrochloride (TRIS-HCl) and 0.5 mM ethylenediaminetetraacetic acid (EDTA), pH 7.4, using an Ultra-TURRAX. The suspension was centrifuged at 48,000 g for 20 min. After removal of the supernatant liquid, the proteinaceous membrane material present in the sediment was washed three times by suspension in buffer solution A and subsequent centrifugation at 48,000 g for 20 minutes each time. The membrane material was then suspended in 15 times the volume of buffer solution A and incubated at 37° C. for 30 minutes. The protein material was subsequently washed twice by centrifugation and suspension and stored at -70° C. until used.
For the binding assay, the protein material was thawed at 37° C. and washed twice by centrifugation at 48,000 g (20 minutes) followed by suspension in a buffer solution B composed of 50 mM TRIS-HCl, 0.1 M potassium thiocyanate and 2.5 mM calcium chloride, pH 7.1. Subsequently 0.25 mg of membrane material, 0.1 μCi of ^3 H-AMPA (60 Ci/mmol) and compound I were dissolved in 1 ml of buffer solution B and incubated on ice for 60 minutes. The incubated solution was filtered through a CF/B filter (from Whathman) which had previously been treated with a 0.5% strength aqueous solution of polyethyleneimine for at least 2 hours. The filtrate [sic] was then washed with 5 ml of cold buffer solution B in order to separate bound and free ^3 H-AMPA from one another. After the radioactivity of the bound ^3 H-AMPA in the membrane material had been measured by scintillation counting, the KI was determined by subjecting the displacement plots to regression analysis.

Compound | Ki [1] [nM] | Ki (AMPA receptor) [nM]
COC(=O)CCc1nc2c3cc(C)c(C)cc3[nH]c(=O)n2n1 [Example 4, Methyl 3-(8,9-dimethyl-1,2,4-triazolo[1,5-c]quinazolin-5-on-2)propionate] | 1750 | 
O=C(O)CCCc1nc2c3ccc([N+](=O)[O-])cc3[nH]c(=O)n2n1 [Example 13] | 500 | 3400
O=C(O)CCc1nc2c3ccc([N+](=O)[O-])cc3[nH]c(=O)n2n1 [Example 14] | 170 | 600
O=C(O)CCc1nc2c3cc([N+](=O)[O-])c([N+](=O)[O-])cc3[nH]c(=O)n2n1 [Example 15] | 400 | 1000
Cc1cc2[nH]c(=O)n3nc(CCC(=O)O)nc3c2cc1C [Example 16] | 100 | 
O=C(O)CCc1nc2c3ccc(C(F)(F)F)cc3[nH]c(=O)n2n1 [Example 18] | 650 | 600
O=C(O)CCc1nc2c3ccc4ccccc4c3[nH]c(=O)n2n1 [Example 19] | 300 | 700
O=C(O)CCc1nc2c3cc4ccccc4cc3[nH]c(=O)n2n1 [Example 20] | 400 | 600
Cc1cc2[nH]c(=O)n3nc(CCC(=O)NCc4ccccc4)nc3c2cc1C [Example 21, 3-(8,9-Dimethyl-1,2,4-triazolo[1,5-c]quinazolin-5-on-2)propionic acid benzylamide] | 800 | 
